Counter-ions that a name gives are not always drawn.
Row | melting point | SMILES
1 | 230 to 232 °C | O=c1[nH]c2ccccc2cc1-c1csc(-c2cccnc2)n1 [Example 2, 3-[2-(3-Pyridyl)-4-thiazolyl]-2(1H)-quinolinone]
2 | > 300 °C | O=c1[nH]c2ccccc2cc1-c1csc(Nc2cccnc2)n1 (as salt: hydrobromid) [Example 68, 3-[2-(3-Pyridylamino)-1,3-thiazol-4-yl]hydroquinolin-2-one]
3 | > 300 °C | Nc1nc(-c2cc3ccccc3[nH]c2=O)cs1 (as salt: hydrobromid) [Example 66, 3-(2-Amino-1,3-thiazol-4-yl)hydroquinolin-2-one]
4 | 307 to 312 °C (dec.) | O=c1[nH]c2ccccc2cc1-c1csc(Nc2ccccn2)n1 (as salt: hydrobromid) [Example 67, 3-[2-(2-pyridylamino)-1,3-thiazol-4-yl]hydroquinolin-2-one]
5 | 144 to 148 °C | CN(C)CCN(C)C(=O)c1ccc2cc(-c3csc(N(C)S(=O)(=O)c4ccccc4)n3)c(=O)[nH]c2c1 [Example 8788, 3-[2-(Benzenesulfonyl-methyl-amino)-thiazol-4-yl]-2-oxo-1,2-dihydro-quinoline-7-carboxylic acid (2-dimethylamino-ethyl)-methyl-amide]
6 | 167 to 169 °C | O=c1[nH]c2cc3c(cc2cc1-c1csc(-c2ccncc2)n1)OCO3 [Example 18, 7-(2-(4-Pyridinyl)-1,3-thiazol-4-yl)[1,3]dioxolo[4,5-g]quinolin-6(5H)-one]
7 | 241 to 243 °C | O=c1[nH]c2ccccc2cc1-c1csc(-c2ccncc2)n1 [Example 1, 3-[2-(4-Pyridyl)-4-thiazolyl]-2(1H)-quinolinone]
8 | 292 to 293 °C | CNc1nc(-c2cc3ccccc3[nH]c2=O)cs1 (as salt: hydrobromid) [Example 75, 3-[2-(Methylamino)-1,3-thiazol-4-yl]hydroquinolin-2-one hydrobromide]
9 | > 250 °C | O=c1[nH]c2ccccc2c(O)c1-c1csc(-c2ccncc2)n1 [Example 5, 3-[2-(4-pyridyl)-4-thiazolyl]-4-hydroxy-2(1H)-quinolinone]
10 | > 300 °C | O=c1[nH]c2ccccc2cc1-c1csc(Nc2ccncc2)n1 (as salt: hydrobromid) [Example 69, 3-[2-(4-Pyridylamino)-1,3-thiazol-4-yl]hydroquinolin-2-one]
11 | 309 to 311 °C (dec.) | O=C(Nc1nc(-c2cc3ccccc3[nH]c2=O)cs1)c1ccccc1 (as salt: HCl) [Example 71, N-[4-(2-Oxo(3-hydroquinolyl))(1,3-thiazol-2-yl)]benzamide]
12 | > 300 °C | O=c1[nH]c2ccccc2cc1-c1csc(NS(=O)(=O)c2ccc(OC(F)(F)F)cc2)n1 [Example 74, 3-[2-({[4-(Trifluoromethoxy)phenyl]sulfonyl}amino)-1,3-thiazol-4-yl]hydroquinolin-2-one]
13 | > 300 °C | N#Cc1ccc(-c2csc(-c3cc4ccccc4[nH]c3=O)n2)cc1 [Example 113, 4-[2-(2-Oxo-3-hydroquinolyl)-1,3-thiazol-4-yl]benzenecarbonitrile]
14 | > 250 °C | COC(=O)c1cccc2[nH]c(=O)c(-c3csc(-c4ccncc4)n3)cc12 [Example 8, 1,2-Dihydro-2-oxo-3-[2-(4-pyridyl)-4-thiazolyl]-5-quinolinecarboxylic acid methyl ester]
15 | > 300 °C | CCNC(=O)c1ccc2cc(-c3csc(N(C)S(=O)(=O)c4ccccc4)n3)c(=O)[nH]c2c1 [Example 8766, 3-[2-(Benzenesulfonyl-methyl-amino)-thiazol-4-yl]-2-oxo-1,2-dihydro-quinoline-7-carboxylic acid ethylamide]
16 | > 300 °C | O=c1[nH]c2ccccc2cc1-c1nc(-c2cccc([N+](=O)[O-])c2)cs1 [Example 114, 3-[4-(3-Nitrophenyl)-1,3-thiazol-2-yl]hydroquinolin-2-one]
17 | 277 to 278 °C (dec.) | O=c1[nH]c2ccccc2cc1-c1csc(Nc2ccccc2F)n1 [Example 78, 3-{2-[(2-Fluorophenyl)amino]-1,3-thiazol-4-yl}hydroquinolin-2-one]
18 | > 250 °C | O=C(O)c1cccc2[nH]c(=O)c(-c3csc(-c4ccncc4)n3)cc12 [Example 10, 1,2-Dihydro-2-oxo-3-[2-(4-pyridyl)-4-thiazolyl]-5-quinolinecarboxylic acid]
